Experimental findings from US12150995B2, “IRAK degraders and uses thereof” (Kymera Therapeutics, Inc., priority 2020, dated 2024) are described below.

This test has as its target T1, IRAK4 (Homo sapiens, UniProt Q9NWZ3).
T1 construct: endogenous in cells; host or cells: OCI-LY10
T1 sequence (Q9NWZ3 1-460): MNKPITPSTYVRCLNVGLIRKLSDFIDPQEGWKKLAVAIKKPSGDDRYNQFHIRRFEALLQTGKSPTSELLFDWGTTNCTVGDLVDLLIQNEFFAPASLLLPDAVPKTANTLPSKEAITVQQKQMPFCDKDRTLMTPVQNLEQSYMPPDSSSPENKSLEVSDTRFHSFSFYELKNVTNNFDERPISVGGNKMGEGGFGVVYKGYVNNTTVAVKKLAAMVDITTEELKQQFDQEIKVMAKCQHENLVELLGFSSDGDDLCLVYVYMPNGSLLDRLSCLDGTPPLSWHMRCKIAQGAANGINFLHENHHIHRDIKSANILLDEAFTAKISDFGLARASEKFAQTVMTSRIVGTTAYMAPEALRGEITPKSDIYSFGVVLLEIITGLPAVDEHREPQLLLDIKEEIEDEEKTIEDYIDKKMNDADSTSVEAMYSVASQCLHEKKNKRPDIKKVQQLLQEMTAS
Briefly: IRAK4 MSD Degradation in OCI-LY10. Type of test: cell-based. The settings on record: OCI-LY10 cells, Meso Scale Discovery, incubated 4 to 24 hours. The method, then:
Degradation of IRAK4 in OCI-LY10 was quantitatively measured using Meso Scale Discovery technology. OCI-LY10 cells were seeded in 96-well plates (Corning 3799) with a density of 300,000 cells per well in 100 μL fresh media. Compounds were then added to the assay plates with a final top concentration of 1 to 10 μM in a 1:3 dilution series with total of 8 doses. The assay plates were then incubated for 4 to 24 hours at 37° C. under 5% CO2. The assay plates were then centrifuged for 5 minutes and the cell pellets were treated with 100 μL/well RIPA lysis buffer (Boston BioProducts BP-115D) with proteinase inhibitors. To prepare MSD assay plates (Meso Scale Discovery Catalog number L15XA-3), the plates were coated with 2 μg/mL capture antibody (mouse Anti-IRAK4 antibody [2H9], ab119942) in PBS, at 40 μL/well. The plates were then incubated overnight at 4° C., washed 3 times with 150 μL/well TBST buffer (Cell Signaling Technology, Catalog number 9997S) and blocked with 150 μL/well blocking buffer (Meso Scale Discovery Catalog number R93BA-4). Cell lysates were then added to MSD assay plates and the plates were incubated at room temperature for 1 hour. The plates were then washed 3 times with 150 μL/well TBST buffer and […] primary detection antibody (rabbit Anti-IRAK4 antibody [Y279], from Abcam. Catalog number ab32511, 1 μg/mL). The assay plates were then incubated at room temperature for 1 hour, washed 3 times with 150 μL/well TBST buffer and 254/well secondary detection antibody, SULFO-TAG anti-rabbit antibody were added (anti rabbit antibody from Meso Scale Discovery, Catalog number R32AB-1, 1 μg/mL). The assay plates were then incubated at room temperature for 1 hour, washed 3 times with 150 μL/well TBST buffer, and 150 μL/well MSD reading buffer (Meso Scale Discovery catalog number R92TC-2) was added. The plates were then analyzed by a MSD reader (Meso Scale Discovery, Model Quick Plex SQ 120). The data was then analyzed by software Prism 7.0 from GraphPad and the dose-depended IRAK4 degradation were fit using a three-parameter logistic equation to calculate DC50.
The letter codes for IRAK4 DC50 include: A (<0.01 μM); B (0.01-0.05 μM); C (0.05-0.1 μM); D (0.1-0.2 μM); and E (>0.2 μM).

One may read the DC50 as the concentration giving 50% degradation. A higher DC50 goes with a less potent degrader. For the compound `COc1cc2nn([C@H]3CC[C@H](CN4CCC5(CC4)CC(CCNc4cccc6c4C(=O)N(C4CCC(=O)NC4=O)C6=O)C5)CC3)cc2cc1NC(=O)c1cnn2ccc(C(F)(F)F)nc12` (stereo partly drawn) [I-15], the DC50 is over 200 nM. As for `Cc1cc2nn([C@H]3CC[C@H](CN4CCC(c5cccc6c5n(C)c(=O)n6C5CCC(=O)NC5=O)CC4)CC3)cc2cc1NC(=O)c1cccc(C(F)(F)F)n1` (stereo partly drawn) [I-70], the figure is under 10 nM. `Cn1c(=O)n(C2CCC(=O)NC2=O)c2cccc(N3CCN(C[C@H]4CC[C@H](n5cc6cc(NC(=O)c7cccc(C(F)(F)F)n7)c(C#N)cc6n5)CC4)CC3)c21` (stereo partly drawn) [I-363]: the DC50 is under 10 nM.

As for `CC(C)Nc1cc(-n2ccc3cc(C#N)cnc32)ncc1-c1cn([C@H]2CC[C@H](CN3CCN(c4cccc5c4n(C)c(=O)n5C4CCC(=O)NC4=O)CC3)CC2)nn1` (stereo partly drawn) [I-231], the half-maximal degradation concentration (DC50) was 10 to 50 nM. `Cn1c(=O)n(C2CCC(=O)NC2=O)c2cccc(N3CC4CC(C3)N4C[C@H]3CC[C@H](n4cc5cc(NC(=O)c6cccc(C(F)(F)F)n6)ccc5n4)CC3)c21` (single isomer, unassigned) [I-157, N-[2-[4-[[3-[1-(2,6-dioxo-3-piperidyl)-3-methyl-2-oxo-benzimidazol-4-yl]-3,6-diazabicyclo[3.1.1]heptan-6-yl]methyl]cyclohexyl]indazol-5-yl]-6-(trifluoromethyl)pyridine-2-carboxamide]: the DC50 fell in the range of 50 to 100 nM. The compound `Cc1ccc2c(c1C1CCN(C[C@H]3CC[C@H](n4cc5cc(NC(=O)c6cccc(C(F)(F)F)n6)c(F)cc5n4)CC3)CC1)n(C)c(=O)n2C1CCC(=O)NC1=O` (stereo partly drawn) [I-67] yielded a DC50 of 10 to 50 nM. For `COc1cc2nn([C@H]3C[C@H](CN4CCC(c5c(OC)ccc6c5n(C)c(=O)n6C5CCC(=O)NC5=O)CC4)C3)cc2cc1NC(=O)c1cccc(C(F)(F)F)n1` (stereo partly drawn) [I-138] the value was under 10 nM; for `CCc1cc2nn([C@H]3CC[C@H](CN4CCN(c5cccc6c5n(C)c(=O)n6C5CCC(=O)NC5=O)CC4)CC3)cc2cc1NC(=O)c1cccc(C(F)(F)F)n1` (stereo partly drawn) [I-378], under 10 nM; for `CN(C[C@H]1CC[C@H](n2cc3cc(NC(=O)c4cccc(C(F)(F)F)n4)ccc3n2)CC1)C1CCN(c2cccc3c(N4CCC(=O)NC4=O)cncc23)CC1` [I-98], over 200 nM. The compound `CC(C)(O)c1cc2nc([C@H]3CC[C@H](CN4CCO[C@@H](CCCNc5cccc6c5C(=O)N(C5CCC(=O)NC5=O)C6=O)C4)CC3)sc2cc1NC(=O)c1cncc(C#N)c1` (stereo partly drawn) [I-454] returned a DC50 of over 200 nM. As for `CN(C[C@H]1CC[C@H](n2cc3cc(NC(=O)c4cccc(C(F)(F)F)n4)c(C(C)(C)O)cc3n2)CC1)C1CCN(c2ccc3c(N4CCC(=O)NC4=O)cncc3c2)CC1` [I-65], the figure is under 10 nM; as for `CC(C)Nc1c(C(=O)N[C@H]2CC[C@H](CN3CCC(c4cccc5c4n(C)c(=O)n5C4CCC(=O)NC4=O)CC3)CC2)cnc2sc(-c3cncs3)cc12` (stereo partly drawn) [I-417], under 10 nM; as for `Cc1ccc2c(c1C1CCN(C[C@H]3C[C@H](n4cc5cc(NC(=O)c6cccc(C(F)(F)F)n6)c(Cl)cc5n4)C3)CC1)n(C)c(=O)n2C1CCC(=O)NC1=O` (stereo partly drawn) [I-143], 50 to 100 nM. As for `COc1cc2nn([C@H]3C[C@H](CN4CCC(c5c(Cl)ccc6c5n(C)c(=O)n6C5CCC(=O)NC5=O)CC4)C3)cc2cc1NC(=O)c1cccc(C(F)(F)F)n1` (stereo partly drawn) [I-87, N-[2-[3-[[4-[5-chloro-1-(2,6-dioxo-3-piperidyl)-3-methyl-2-oxo-benzimidazol-4-yl]-1-piperidyl]methyl]cyclobutyl]-6-methoxy-indazol-5-yl]-6-(trifluoromethyl)pyridine-2-carboxamide], the figure is under 10 nM; as for `COc1cc2nn([C@H]3CC[C@H](CN4CCC(c5c(OC)ccc6c5n(C)c(=O)n6C5CCC(=O)NC5=O)CC4)CC3)cc2cc1NC(=O)c1cncc(Cl)c1` (stereo partly drawn) [I-111], under 10 nM; as for `COc1cc2nc([C@H]3CC[C@H](CN4CC5(CC(CCNc6cccc7c6C(=O)N(C6CCC(=O)NC6=O)C7=O)C5)C4)CC3)n(C)c2cc1NC(=O)c1cccc(C(F)(F)F)n1` (stereo partly drawn) [I-3], 50 to 100 nM. The compound `Cc1ccc2c(c1C1CCN(C[C@H]3CC[C@H](n4cc5cc(NC(=O)c6cccc(C(F)(F)F)n6)ncc5n4)CC3)CC1)n(C)c(=O)n2C1CCC(=O)N(C)C1=O` (stereo partly drawn) [I-162] gave a DC50 of over 200 nM. For `COc1cc2nn([C@H]3CC[C@H](CN(C)C4CCN(c5cccc6c5n(C)c(=O)n6C5CCC(=O)NC5=O)CC4)CC3)cc2cc1-n1cc(-c2cccc(C(F)(F)F)n2)nn1` (stereo partly drawn) [I-100] the value was over 200 nM; for `COc1cc2nn([C@H]3CC[C@@H](CN4CC5(CC(CCNc6cccc7c6C(=O)N(C6CCC(=O)NC6=O)C7=O)C5)C4)CC3)cc2cc1NC(=O)c1cccc(C(C)(F)F)n1` (stereo partly drawn) [I-11, 6-(1,1-Difluoroethyl)-N-[2-[4-[[6-[2-[[2-(2,6-dioxo-3-piperidyl)-1,3-dioxo-isoindolin-4-yl]amino]ethyl]-2-azaspiro[3.3]heptan-2-yl]methyl]cyclohexyl]-6-methoxy-indazol-5-yl]pyridine-2-carboxamide], 50 to 100 nM; for `CC(C)Nc1cc(-n2ccc3cc(C#N)cnc32)ncc1C(=O)N[C@H]1CC[C@H](CN2CCC(c3ccc4c(N5CCC(=O)NC5=O)cncc4c3)CC2)CC1` [I-127], 10 to 50 nM.

On to `CC(C)(O)c1cc2nc([C@H]3CC[C@H](CN4CCN(CCNc5cccc6c5C(=O)N(C5CCC(=O)NC5=O)C6=O)CC4)CC3)sc2cc1NC(=O)c1cccc(C#N)n1` (stereo partly drawn) [I-441], for which the DC50 lay in the range of 10 to 50 nM.

`COc1cc2nn([C@H]3C[C@H](CN4CCC(c5c(F)ccc6c5n(C)c(=O)n6C5CCC(=O)NC5=O)CC4)C3)cc2cc1NC(=O)c1cccc(C(F)(F)F)n1` (stereo partly drawn) [I-89] registered a DC50 of 10 to 50 nM. As for `O=C1CCN(c2cncc3c(N4CCN(C[C@H]5CC[C@H](n6cc7cc(NC(=O)c8cccc(C(F)(F)F)n8)c(C(F)F)cc7n6)CC5)CC4)cccc23)C(=O)N1` [I-371], the figure is under 10 nM; as for `Cn1c(=O)n(C2CCC(=O)NC2=O)c2cccc(C3CC4CCC(C3)N4C[C@H]3CC[C@H](n4cc5cc(NC(=O)c6cccc(C(F)(F)F)n6)ccc5n4)CC3)c21` (single isomer, unassigned) [I-251], under 10 nM. As for `Cc1cc2nn([C@H]3CC[C@H](CN4CCN(c5cccc6c5n(C)c(=O)n6C5CCC(=O)NC5=O)C[C@@H]4C)CC3)cc2cc1NC(=O)c1cccc(C(F)(F)F)n1` (stereo partly drawn) [I-301], the figure is under 10 nM. As for `COc1cc2nn([C@H]3CC[C@H](CN4CCC(CCNc5cccc6c5C(=O)N(C5CCC(=O)NC5=O)C6=O)CC4)CC3)cc2cc1NC(=O)c1cccc(C(C)(F)F)n1` (stereo partly drawn) [I-8], the figure is 10 to 50 nM; as for `Cn1c(=O)n(C2CCC(=O)NC2=O)c2cccc(C3CCN(C[C@H]4CC[C@H](n5cc6cc(NC(=O)c7cncc(C#N)c7)c(OC(F)(F)F)cc6n5)CC4)CC3)c21` (stereo partly drawn) [I-325], over 200 nM; as for `CN(CCCO[C@H]1C[C@@H](Nc2cccc3c2C(=O)N(C2CCC(=O)NC2=O)C3=O)C1)C[C@H]1CC[C@H](n2cc3cc(NC(=O)c4cccc(C(F)(F)F)n4)c(C(C)(C)O)cc3n2)CC1` (stereo partly drawn) [I-464], 10 to 50 nM. `COc1cc2nn([C@H]3CC[C@H](CN4[C@@H]5C[C@H]4CN(c4cccc6c4n(C)c(=O)n6C4CCC(=O)NC4=O)C5)CC3)cc2cc1NC(=O)c1cccc(C(F)(F)F)n1` (stereo partly drawn) [I-158] registered a DC50 of under 10 nM. For `O=C1CCN(c2cncc3cc(N4CCN(C[C@H]5CC[C@H](n6cc7cc(NC(=O)c8cccc(C(F)(F)F)n8)ccc7n6)CC5)CC4)ccc23)C(=O)N1` [I-161], the DC50 is over 200 nM. Regarding `CC(C)Nc1cc(-c2ccc3cc(C#N)cnn23)ncc1-c1cn([C@H]2CC[C@H](CN3CCN(c4cccc5c4n(C)c(=O)n5C4CCC(=O)NC4=O)CC3)CC2)nn1` (stereo partly drawn) [I-411], the DC50 was 10 to 50 nM. As for `CCOc1cc2nn([C@H]3CC[C@H](CN4CCN(c5cccc6c5n(C)c(=O)n6C5CCC(=O)NC5=O)CC4)CC3)cc2cc1NC(=O)c1cccc(C(F)(F)F)n1` (stereo partly drawn) [I-294], the figure is 10 to 50 nM. `COc1cc2nn([C@H]3CC[C@H](CN4C5CCC4CN(c4cccc6c4n(C)c(=O)n6C4CCC(=O)NC4=O)C5)CC3)cc2cc1NC(=O)c1cccc(C(F)(F)F)n1` (stereo partly drawn) [I-167] returned a DC50 of under 10 nM.
